Assay results from the NIST ThermoML archive (doi:10.1016/j.jct.2005.03.019).

Experiment: xn = mol fraction of the nth substance listed
Settings: 101 kPa, Liquid, Vibrating tube method

CC1COC(=O)O1 (centres undefined) [4-methyl-1,3-dioxolan-2-one] + c1ccccc1
Settings | mass density [kg/m3]
293.15 K, x2 = 0 | 1200.3
293.15 K, x2 = 0.049 | 1184.5
293.15 K, x2 = 0.1189 | 1162
293.15 K, x2 = 0.1749 | 1144.1
293.15 K, x2 = 0.2349 | 1125
293.15 K, x2 = 0.2949 | 1105.9
293.15 K, x2 = 0.3649 | 1083.6
293.15 K, x2 = 0.4248 | 1064.6
293.15 K, x2 = 0.4959 | 1041.9
293.15 K, x2 = 0.5529 | 1023.8
293.15 K, x2 = 0.6249 | 1000.7
293.15 K, x2 = 0.6934 | 978.6
293.15 K, x2 = 0.7539 | 959
293.15 K, x2 = 0.8135 | 939.6
293.15 K, x2 = 0.8622 | 923.6
293.15 K, x2 = 0.9248 | 902.9
303.15 K, x2 = 0 | 1180.6
303.15 K, x2 = 0.0487 | 1165.3
303.15 K, x2 = 0.1273 | 1140.9
303.15 K, x2 = 0.1841 | 1123.3
303.15 K, x2 = 0.2487 | 1103.3
303.15 K, x2 = 0.3127 | 1083.6
303.15 K, x2 = 0.3749 | 1064.4
303.15 K, x2 = 0.4364 | 1045.4
303.15 K, x2 = 0.4821 | 1031.4
303.15 K, x2 = 0.5428 | 1012.6
303.15 K, x2 = 0.6038 | 993.7
303.15 K, x2 = 0.6782 | 970.5
303.15 K, x2 = 0.7465 | 949.1
303.15 K, x2 = 0.8246 | 924.4
303.15 K, x2 = 0.8846 | 905.3
303.15 K, x2 = 0.9381 | 888.1
313.15 K, x2 = 0 | 1161.3
313.15 K, x2 = 0.0537 | 1145
313.15 K, x2 = 0.1295 | 1122
313.15 K, x2 = 0.1649 | 1111.4
313.15 K, x2 = 0.2359 | 1090
313.15 K, x2 = 0.3139 | 1066.7
313.15 K, x2 = 0.3619 | 1052.3
313.15 K, x2 = 0.4143 | 1036.6
313.15 K, x2 = 0.4829 | 1016.1
313.15 K, x2 = 0.5498 | 996.1
313.15 K, x2 = 0.625 | 973.4
313.15 K, x2 = 0.6821 | 956.2
313.15 K, x2 = 0.7492 | 935.8
313.15 K, x2 = 0.8247 | 912.6
313.15 K, x2 = 0.8732 | 897.6
313.15 K, x2 = 0.9348 | 878.4
323.15 K, x2 = 0 | 1142.4
323.15 K, x2 = 0.0598 | 1124.7
323.15 K, x2 = 0.131 | 1103.7
323.15 K, x2 = 0.1856 | 1087.7
323.15 K, x2 = 0.2438 | 1070.7
323.15 K, x2 = 0.3257 | 1046.8
323.15 K, x2 = 0.3987 | 1025.6
323.15 K, x2 = 0.4589 | 1008.1
323.15 K, x2 = 0.5156 | 991.6
323.15 K, x2 = 0.5687 | 976.1
323.15 K, x2 = 0.6145 | 962.7
323.15 K, x2 = 0.6647 | 948
323.15 K, x2 = 0.7365 | 926.8
323.15 K, x2 = 0.7965 | 909
323.15 K, x2 = 0.8567 | 891
323.15 K, x2 = 0.9267 | 869.8
333.15 K, x2 = 0 | 1124
333.15 K, x2 = 0.0592 | 1106.9
333.15 K, x2 = 0.1281 | 1087
333.15 K, x2 = 0.1834 | 1071.2
333.15 K, x2 = 0.2487 | 1052.6
333.15 K, x2 = 0.3279 | 1030.1
333.15 K, x2 = 0.3987 | 1010
333.15 K, x2 = 0.4598 | 992.7
333.15 K, x2 = 0.5139 | 977.4
333.15 K, x2 = 0.5533 | 966.2
333.15 K, x2 = 0.6138 | 949
333.15 K, x2 = 0.6623 | 935.1
333.15 K, x2 = 0.7246 | 917.3
333.15 K, x2 = 0.7749 | 902.7
333.15 K, x2 = 0.8568 | 878.9
333.15 K, x2 = 0.9248 | 858.9
343.15 K, x2 = 0 | 1106
343.15 K, x2 = 0.0638 | 1087.9
343.15 K, x2 = 0.1139 | 1073.8
343.15 K, x2 = 0.1756 | 1056.4
343.15 K, x2 = 0.2439 | 1037.4
343.15 K, x2 = 0.3178 | 1016.9
343.15 K, x2 = 0.3875 | 997.6
343.15 K, x2 = 0.4583 | 978
343.15 K, x2 = 0.5076 | 964.3
343.15 K, x2 = 0.5586 | 950.2
343.15 K, x2 = 0.6246 | 931.9
343.15 K, x2 = 0.6981 | 911.4
343.15 K, x2 = 0.7528 | 896.1
343.15 K, x2 = 0.8137 | 878.9
343.15 K, x2 = 0.8748 | 861.5
343.15 K, x2 = 0.9361 | 843.9
353.15 K, x2 = 0 | 1088.4
353.15 K, x2 = 0.053 | 1073.6
353.15 K, x2 = 0.1329 | 1051.5
353.15 K, x2 = 0.1822 | 1037.9
353.15 K, x2 = 0.2378 | 1022.7
353.15 K, x2 = 0.3327 | 996.9
353.15 K, x2 = 0.381 | 983.8
353.15 K, x2 = 0.4485 | 965.5
353.15 K, x2 = 0.5236 | 945.2
353.15 K, x2 = 0.5728 | 931.9
353.15 K, x2 = 0.6387 | 914
353.15 K, x2 = 0.6831 | 901.9
353.15 K, x2 = 0.7428 | 885.6
353.15 K, x2 = 0.7933 | 871.7
353.15 K, x2 = 0.8642 | 852.1
353.15 K, x2 = 0.9461 | 829.2

C=Cc1ccccc1 [styrene] + CC1COC(=O)O1
Settings | mass density [kg/m3]
293.15 K, x1 = 0.0537 | 1180.1
293.15 K, x1 = 0.1389 | 1149.3
293.15 K, x1 = 0.1832 | 1134
293.15 K, x1 = 0.2341 | 1116.8
293.15 K, x1 = 0.294 | 1097.3
293.15 K, x1 = 0.3867 | 1068.4
293.15 K, x1 = 0.4379 | 1053.1
293.15 K, x1 = 0.5089 | 1032.5
293.15 K, x1 = 0.5799 | 1012.6
293.15 K, x1 = 0.6328 | 998.3
293.15 K, x1 = 0.6978 | 981.1
293.15 K, x1 = 0.7534 | 966.7
293.15 K, x1 = 0.8136 | 951.5
293.15 K, x1 = 0.8738 | 936.6
293.15 K, x1 = 0.9348 | 921.7
293.15 K, x1 = 1 | 906
303.15 K, x1 = 0.0613 | 1158.4
303.15 K, x1 = 0.1289 | 1134.8
303.15 K, x1 = 0.1743 | 1119.6
303.15 K, x1 = 0.2389 | 1098.5
303.15 K, x1 = 0.2976 | 1080.1
303.15 K, x1 = 0.3681 | 1058.8
303.15 K, x1 = 0.4178 | 1044.3
303.15 K, x1 = 0.4622 | 1031.7
303.15 K, x1 = 0.5239 | 1014.6
303.15 K, x1 = 0.5919 | 996.3
303.15 K, x1 = 0.6521 | 980.7
303.15 K, x1 = 0.7244 | 962.4
303.15 K, x1 = 0.7932 | 945.4
303.15 K, x1 = 0.8472 | 932.4
303.15 K, x1 = 0.9247 | 914
303.15 K, x1 = 1 | 896.4
313.15 K, x1 = 0.0473 | 1144.7
313.15 K, x1 = 0.1255 | 1118.3
313.15 K, x1 = 0.1922 | 1096.7
313.15 K, x1 = 0.2467 | 1079.7
313.15 K, x1 = 0.2844 | 1068.3
313.15 K, x1 = 0.3388 | 1052.2
313.15 K, x1 = 0.4032 | 1033.8
313.15 K, x1 = 0.4789 | 1013
313.15 K, x1 = 0.5376 | 997.4
313.15 K, x1 = 0.6198 | 976.4
313.15 K, x1 = 0.6638 | 965.4
313.15 K, x1 = 0.7398 | 946.9
313.15 K, x1 = 0.8133 | 929.5
313.15 K, x1 = 0.8756 | 915.1
313.15 K, x1 = 0.9456 | 899.1
313.15 K, x1 = 1 | 886.9
323.15 K, x1 = 0.0598 | 1122.3
323.15 K, x1 = 0.1431 | 1095.3
323.15 K, x1 = 0.1846 | 1082.4
323.15 K, x1 = 0.2572 | 1060.6
323.15 K, x1 = 0.3312 | 1039.2
323.15 K, x1 = 0.3841 | 1024.5
323.15 K, x1 = 0.4423 | 1008.8
323.15 K, x1 = 0.4928 | 995.6
323.15 K, x1 = 0.5634 | 977.7
323.15 K, x1 = 0.6143 | 965.1
323.15 K, x1 = 0.6635 | 953.3
323.15 K, x1 = 0.7187 | 940.3
323.15 K, x1 = 0.7749 | 927.3
323.15 K, x1 = 0.8353 | 913.6
323.15 K, x1 = 0.9244 | 893.8
323.15 K, x1 = 1 | 877.3
333.15 K, x1 = 0.0534 | 1106.6
333.15 K, x1 = 0.113 | 1087.7
333.15 K, x1 = 0.1682 | 1070.9
333.15 K, x1 = 0.2134 | 1057.5
333.15 K, x1 = 0.2843 | 1037.2
333.15 K, x1 = 0.3587 | 1016.8
333.15 K, x1 = 0.4238 | 999.7
333.15 K, x1 = 0.479 | 985.6
333.15 K, x1 = 0.5359 | 971.5
333.15 K, x1 = 0.5831 | 960.1
333.15 K, x1 = 0.6811 | 937.2
333.15 K, x1 = 0.7529 | 920.9
333.15 K, x1 = 0.8243 | 905.2
333.15 K, x1 = 0.8871 | 891.7
333.15 K, x1 = 0.9424 | 879.9
333.15 K, x1 = 1 | 867.8
343.15 K, x1 = 0.0648 | 1085.6
343.15 K, x1 = 0.1198 | 1068.9
343.15 K, x1 = 0.1823 | 1050.6
343.15 K, x1 = 0.2398 | 1034.3
343.15 K, x1 = 0.318 | 1013
343.15 K, x1 = 0.3832 | 996
343.15 K, x1 = 0.4429 | 981
343.15 K, x1 = 0.5138 | 963.8
343.15 K, x1 = 0.5824 | 947.6
343.15 K, x1 = 0.6529 | 931.6
343.15 K, x1 = 0.7039 | 920.3
343.15 K, x1 = 0.7735 | 905.2
343.15 K, x1 = 0.8423 | 890.7
343.15 K, x1 = 0.8814 | 882.5
343.15 K, x1 = 0.9476 | 868.9
343.15 K, x1 = 1 | 858.2
353.15 K, x1 = 0.0621 | 1069.6
353.15 K, x1 = 0.1257 | 1051
353.15 K, x1 = 0.1644 | 1040
353.15 K, x1 = 0.2312 | 1021.6
353.15 K, x1 = 0.3042 | 1002.2
353.15 K, x1 = 0.3718 | 985
353.15 K, x1 = 0.4423 | 967.7
353.15 K, x1 = 0.5021 | 953.5
353.15 K, x1 = 0.5539 | 941.6
353.15 K, x1 = 0.6243 | 925.9
353.15 K, x1 = 0.6912 | 911.4
353.15 K, x1 = 0.752 | 898.5
353.15 K, x1 = 0.8132 | 885.9
353.15 K, x1 = 0.8642 | 875.5
353.15 K, x1 = 0.9248 | 863.4
353.15 K, x1 = 1 | 848.6
